# Test results taken from PubChem BioAssay (NCI).
#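 Tested at 5 concentrations; 48 h exposure; 96-well plates; endpoints linearly interpolated, else capped at highest concentration. Abbreviation: GI50, concentration required for 50% inhibition of growth. The concentration for full growth arrest is given as TGI.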
# Tests used:
# Test in all cases: NCI tumour cell line growth inhibition, 48 h
# HOP-62 NSCLC = tested on: HOP-62 NSCLC
# HCT-116 colon = tested on: HCT-116 colon
# HL-60(TB) leukemia = tested on: HL-60(TB) leukemia
# EKVX NSCLC = tested on: EKVX NSCLC
# HCT-15 colon = tested on: HCT-15 colon
# SNB-19 CNS = tested on: SNB-19 CNS
# T-47D breast = tested on: T-47D breast
# MDA-MB-231 breast = tested on: MDA-MB-231 breast
# HOP-92 NSCLC = tested on: HOP-92 NSCLC
# SK-MEL-28 melanoma = tested on: SK-MEL-28 melanoma
Structure (SMILES),TGI (HOP-62 NSCLC),TGI (HCT-116 colon),TGI (HL-60(TB) leukemia),TGI (EKVX NSCLC),TGI (HCT-15 colon),TGI (SNB-19 CNS),GI50 (HOP-62 NSCLC),GI50 (EKVX NSCLC),GI50 (T-47D breast),TGI (T-47D breast),GI50 (HCT-15 colon),GI50 (MDA-MB-231 breast),TGI (MDA-MB-231 breast),GI50 (HOP-92 NSCLC),TGI (HOP-92 NSCLC),GI50 (SK-MEL-28 melanoma),TGI (SK-MEL-28 melanoma),GI50 (SNB-19 CNS),GI50 (HCT-116 colon),GI50 (HL-60(TB) leukemia)
CC(Sc1ccccc1)C(CO)(CO)[N+](=O)[O-] (stereo not drawn),35.5 µM,31.6 µM,16 µM,34.1 µM,30.6 µM,43.8 µM,,,,,,,,,,,,,,
O=C1c2cc3c(cc2-c2c1c1ccc(Cl)cc1c(=O)n2C[C@H](O)[C@@H](O)[C@H](O)CO)OCO3,0.341 µM,,,11.2 µM,1.66 µM,> 100 µM,0.0186 µM,0.202 µM,0.0132 µM,0.29 µM,0.143 µM,0.333 µM,3.76 µM,0.069 µM,0.666 µM,0.0997 µM,1.16 µM,0.0216 µM,,
O=C(O)C(CSC(c1ccccc1)(c1ccccc1)c1ccccc1)N=Cc1cccs1 (stereo not drawn),> 100 µM,> 56.2 µM,26.6 µM,> 100 µM,> 100 µM,> 100 µM,,,,> 100 µM,,,7.01 µM,,> 84 µM,,> 100 µM,,,
O=S1(=O)OC(c2ccc(O)cc2)(c2ccc(O)cc2)c2ccccc21,> 100 µM,> 100 µM,> 100 µM,> 100 µM,> 100 µM,> 100 µM,,,,> 100 µM,,,> 100 µM,,> 100 µM,,> 100 µM,,,
N#CC(c1ccccc1)N1CCCN(C(C#N)c2ccccc2)C1c1ccccc1O (stereo not drawn),> 100 µM,> 100 µM,> 100 µM,> 100 µM,> 100 µM,> 100 µM,,,,> 100 µM,,,> 100 µM,,> 100 µM,,> 100 µM,,,
Cc1cc(O)c(C(C)C)cc1CN1CCCCC1,> 100 µM,> 100 µM,> 100 µM,> 100 µM,> 100 µM,> 100 µM,,,,> 100 µM,,,> 100 µM,,> 100 µM,,> 100 µM,,,
Clc1ccc(Nc2nc(Cl)c3[nH]cnc3n2)cc1Cl,52.5 µM,86.7 µM,47.7 µM,49.1 µM,87.5 µM,> 100 µM,,,,80.4 µM,,,51.9 µM,,53.4 µM,,,,,
CN(C)CCn1c(=O)c2ccc3c4c(nn3CCN(C)C)c3cc(N)ccc3n(c1=O)c24,0.201 µM,0.0716 µM,0.506 µM,0.237 µM,0.222 µM,0.455 µM,,,,0.849 µM,,,0.195 µM,,,,0.394 µM,,,
O=S(=O)(O)c1cccc2c(N=Nc3c(O)ccc4ccccc34)cccc12,> 100 µM,> 100 µM,,> 100 µM,> 100 µM,> 100 µM,,,,> 100 µM,,,> 100 µM,,> 100 µM,,> 100 µM,,,
N[C@H]1CCN(c2c(F)cc3c(=O)c(C(=O)O)cn4c3c2Oc2cc3c(ccc5ccccc53)cc2-4)C1,> 100 µM,> 100 µM,> 100 µM,7.21 µM,> 100 µM,> 100 µM,,,,,,,0.864 µM,,6.29 µM,,,,,
CC[C@@]1(O)C(=O)OCc2c1cc1n(c2=O)Cc2c-1nc1ccc(O)cc1c2CC[Si](C)(C)C,0.0106 µM,,< 0.001 µM,,95 µM,> 100 µM,,0.0181 µM,,,,0.12 µM,12.9 µM,,0.0308 µM,0.107 µM,> 100 µM,,,
COc1ccc(/C=C(\C#N)c2nc(N)nc(N3N=C(C)CC3(C)C)n2)c(O)c1,43.6 µM,31.4 µM,46.8 µM,47.9 µM,35.3 µM,> 100 µM,,,,34.5 µM,,,44.8 µM,,58.5 µM,,29.6 µM,,,
CC(=O)N(C)c1ccc2c(ccc[n+]2[O-])c1[N+](=O)[O-],> 100 µM,> 100 µM,> 100 µM,> 100 µM,> 100 µM,,,,,,,,,,,,> 100 µM,,,
CC1(C)CCC2(C(=O)OC3OC(CO)C(O)C(O)C3O)CCC3(C)C(=CCC4C5(C)CCC(OC6OC(CO)C(O)C(O)C6O)C(C)(C)C5CCC43C)C2C1 (stereo not drawn),> 25 µM,> 25 µM,16.4 µM,> 25 µM,> 25 µM,> 25 µM,,,,24.3 µM,,,> 25 µM,,> 25 µM,,> 25 µM,,,
C[C@]12CCC(=O)C=C1CC[C@@H]1[C@@H]2[C@@H](O)C[C@@]2(C)[C@H]1CC[C@]2(O)C(=O)CO,> 100 µM,> 100 µM,> 100 µM,> 100 µM,> 100 µM,> 100 µM,,,,> 100 µM,,,> 100 µM,,> 100 µM,,> 100 µM,,,
Nc1nc(N)c2c(n1)NC(c1ccccc1)CC(/C=C/c1ccc(Cl)cc1)=N2 (stereo not drawn),34 µM,4.76 µM,28.2 µM,17.3 µM,23.3 µM,29.1 µM,,,,30.8 µM,,,18.4 µM,,18.2 µM,,28.1 µM,,,
Nc1ccccc1N/C(=C\C(=O)C(Cl)(Cl)Cl)c1ccccc1,75.1 µM,38.2 µM,55.3 µM,63.1 µM,80.4 µM,> 100 µM,,,,91.6 µM,,,36.2 µM,,41.8 µM,,> 100 µM,,,

Structure (SMILES),TGI (HOP-62 NSCLC),TGI (HCT-116 colon),TGI (HL-60(TB) leukemia),TGI (EKVX NSCLC),TGI (HCT-15 colon),TGI (SNB-19 CNS),GI50 (HOP-62 NSCLC),GI50 (EKVX NSCLC),GI50 (T-47D breast),TGI (T-47D breast),GI50 (HCT-15 colon),GI50 (MDA-MB-231 breast),TGI (MDA-MB-231 breast),GI50 (HOP-92 NSCLC),TGI (HOP-92 NSCLC),GI50 (SK-MEL-28 melanoma),TGI (SK-MEL-28 melanoma),GI50 (SNB-19 CNS),GI50 (HCT-116 colon),GI50 (HL-60(TB) leukemia)
CCOC(=O)C1CCn2c(nc3c2c(=O)n(C)c(=O)n3C)S1 (stereo not drawn),> 100 µM,> 100 µM,> 100 µM,> 100 µM,> 100 µM,> 100 µM,,,,,,,,,,,,,,
O=[N+]([O-])c1ccc2c(c1)c(N=NC(=S)NC1CCCCC1)c(O)n2CN1CCOCC1,23.8 µM,16.2 µM,17.2 µM,14.1 µM,15.6 µM,22.2 µM,,,,17.7 µM,,,31.8 µM,,12.9 µM,,25.6 µM,,,
O=C(CCN1CC2CCC(CC2)C1)c1cccs1,45.5 µM,42 µM,44.3 µM,42.6 µM,44.1 µM,> 100 µM,,,,24.1 µM,,,34.4 µM,,12.6 µM,,32.5 µM,,,
CCC(C)C1NC(=O)C2CCCN2C(=O)C(CC2CO2)OC(=O)CCNC(=O)C(C)N(C)C(=O)C(C(C)C)N(C)C1=O (stereo not drawn),,,,> 100 µM,> 100 µM,> 100 µM,,,,> 100 µM,,,> 100 µM,,> 100 µM,,> 100 µM,,,
CN1C2CCC1C(C(O)c1ccccc1[N+](=O)[O-])C(=O)C2 (stereo not drawn),> 100 µM,> 100 µM,> 100 µM,> 100 µM,> 100 µM,> 100 µM,,,,87.7 µM,,,> 100 µM,,,,> 100 µM,,,
C/C(=N\NC(=O)c1cccnc1)c1cccc(/C(C)=N/NC(=O)c2cccnc2)n1,,> 100 µM,> 100 µM,> 100 µM,> 100 µM,> 100 µM,,,,,,,,7.41 µM,59.1 µM,9.56 µM,> 100 µM,,4.24 µM,1.67 µM
O=[n+]1c2c(n([O-])c3ccccc31)-c1cccc3cccc-2c13,,> 100 µM,> 100 µM,,> 100 µM,> 100 µM,,,,> 100 µM,,,> 100 µM,,> 100 µM,,,,,
COC(=O)C1C(C)N1C (stereo not drawn),> 100 µM,,> 100 µM,> 100 µM,> 100 µM,> 100 µM,,,,,,,,,> 100 µM,,> 100 µM,,,
C[C@]12CC[C@@H]3c4ccccc4CC[C@H]3[C@@H]1CC[C@@H]2O,> 100 µM,> 100 µM,,> 100 µM,> 100 µM,> 100 µM,,,,,,,,,,,> 100 µM,,,
O=S(=O)(/N=C(\NO)Nc1ccc(Cl)cc1)c1ccc(S(=O)(=O)c2ccccc2)s1,82.8 µM,30.4 µM,50.6 µM,51.5 µM,> 100 µM,> 100 µM,,,,96.3 µM,,,86.2 µM,,31.3 µM,,40.7 µM,,,
NCCNc1nc(N2CCCC2)c2nc(Cl)c(NCc3ccccc3)nc2n1,3.64 µM,2.93 µM,3.99 µM,4.36 µM,3.84 µM,3.91 µM,,,,3.79 µM,,,2.87 µM,,6.1 µM,,3.39 µM,,,
NNC(=O)c1ccccc1Nc1ccccc1C(=O)NN,> 100 µM,> 100 µM,> 100 µM,> 100 µM,> 100 µM,> 100 µM,,,,> 100 µM,,,> 100 µM,,,,> 100 µM,,,
[O-][N+](CCO)(CCO)c1ncnc2nc[nH]c12,> 100 µM,> 100 µM,,> 100 µM,> 100 µM,> 100 µM,,,,> 100 µM,,,> 100 µM,,,,> 100 µM,,,
COC(=O)C1C(O)CCC2CN3CCc4c([nH]c5cccc(OC)c45)C3CC21 (stereo not drawn),> 100 µM,> 100 µM,> 100 µM,> 100 µM,> 100 µM,> 100 µM,,,,> 100 µM,,,> 100 µM,,> 100 µM,,> 100 µM,,,
OCCOCn1cc(Cn2ncc3c(SCc4ccccc4)ncnc32)nn1,> 100 µM,> 100 µM,45.1 µM,> 100 µM,> 100 µM,> 100 µM,,,,> 100 µM,,,> 100 µM,,> 100 µM,,> 100 µM,,,
COc1c2c(cc3c1C(O)N1CC[C@]34[C@H]3O[C@H]3[C@H](OC)C[C@@H]14)OCO2 (stereo partly drawn),> 100 µM,> 100 µM,3.53 µM,> 100 µM,> 100 µM,> 100 µM,,,,> 100 µM,,,> 100 µM,,> 100 µM,,> 100 µM,,,
CC(=O)OC1CC(O)CC2=CCC3C4CCC(C(C)(O)C(O)CC5COC(=O)C5C)C4(C)CCC3C21C (stereo not drawn),> 25 µM,> 25 µM,12.8 µM,> 25 µM,> 25 µM,> 25 µM,,,,> 25 µM,,,> 25 µM,,> 25 µM,,> 25 µM,,,
